Laboratory results published in ChEMBL document CHEMBL1201862, “PubChem BioAssay data set” (2004).
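Briefly, cells in 96-well plates were exposed to five compound concentrations for 48 h, and endpoints were estimated by linear interpolation. GI50 is the concentration that inhibits growth by half.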 Active and inactive are the calls of the source. Rule as the data show it: active = GI50 up to about 1.1 µM and inactive = higher.

Experiments:
Assay in all cases: growth of human tumour cells (NCI), 48 h
MDA-N = test system: MDA-N
MDA-MB-435 = test system: MDA-MB-435
A498 = test system: A498
UO-31 = test system: UO-31
T47D = test system: T47D
SF-268 = test system: SF-268
MOLT-4 = test system: MOLT-4
RPMI-8226 = test system: RPMI-8226
786-0 = test system: 786-0
KM12 = test system: KM12
MCF7 = test system: MCF7
DU-145 = test system: DU-145
A549 = test system: A549
ACHN = test system: ACHN
HL-60 = test system: HL-60
LOX IMVI = test system: LOX IMVI
SW-620 = test system: SW-620
SF-539 = test system: SF-539
SN12C = test system: SN12C
NCI-H23 = test system: NCI-H23
HOP-92 = test system: HOP-92
NCI/ADR-RES = test system: NCI/ADR-RES
SNB-19 = test system: SNB-19
NCI-H226 = test system: NCI-H226
HOP-62 = test system: HOP-62
SF-295 = test system: SF-295
Malme-3M = test system: Malme-3M
M14 = test system: M14
NCI-H460 = test system: NCI-H460
HCC 2998 = test system: HCC 2998
NCI-H522 = test system: NCI-H522
Hs-578T = test system: Hs-578T
HT-29 = test system: HT-29
U-251 = test system: U-251
UACC-257 = test system: UACC-257
EKVX = test system: EKVX
PC-3 = test system: PC-3
BT-549 = test system: BT-549
OVCAR-4 = test system: OVCAR-4
TK-10 = test system: TK-10
OVCAR-5 = test system: OVCAR-5
SK-MEL-2 = test system: SK-MEL-2
OVCAR-8 = test system: OVCAR-8
HCT-116 = test system: HCT-116
SNB-75 = test system: SNB-75
OVCAR-3 = test system: OVCAR-3
MDA-MB-231 = test system: MDA-MB-231
COLO 205 = test system: COLO 205
HCT-15 = test system: HCT-15
K562 = test system: K562
CCRF-CEM = test system: CCRF-CEM
SR = test system: SR
SK-MEL-28 = test system: SK-MEL-28
UACC-62 = test system: UACC-62
SK-OV-3 = test system: SK-OV-3
SK-MEL-5 = test system: SK-MEL-5
IGROV-1 = test system: IGROV-1
CAKI-1 = test system: CAKI-1

CC(C)c1c(P(=O)(c2ccccc2)c2ccccc2)n(C)c2ccccc12
GI50 (MDA-N): 56.1 µM (inactive)
GI50 (MDA-MB-435): 45.5 µM (inactive)
GI50 (A498): > 100 µM (inactive)
GI50 (UO-31): 31.8 µM (inactive)
GI50 (T47D): 77.1 µM (inactive)
GI50 (SF-268): 51.9 µM (inactive)
GI50 (MOLT-4): 34.8 µM (inactive)
GI50 (RPMI-8226): 56.6 µM (inactive)
GI50 (786-0): > 100 µM (inactive)
GI50 (KM12): 51.8 µM (inactive)
GI50 (MCF7): > 100 µM (inactive)
GI50 (DU-145): 80.2 µM (inactive)
GI50 (A549): 51.6 µM (inactive)
GI50 (ACHN): 35.2 µM (inactive)
GI50 (HL-60): 28.1 µM (inactive)
GI50 (LOX IMVI): > 100 µM (inactive)
GI50 (SW-620): > 100 µM (inactive)
GI50 (SF-539): > 100 µM (inactive)
GI50 (SN12C): > 100 µM (inactive)
GI50 (NCI-H23): 40.5 µM (inactive)
GI50 (HOP-92): > 100 µM (inactive)
GI50 (NCI/ADR-RES): 43.1 µM (inactive)
GI50 (SNB-19): 95.9 µM (inactive)
GI50 (NCI-H226): 52.8 µM (inactive)
GI50 (HOP-62): > 100 µM (inactive)
GI50 (SF-295): 45.6 µM (inactive)
GI50 (Malme-3M): > 100 µM (inactive)
GI50 (M14): 64.4 µM (inactive)
GI50 (NCI-H460): 66.8 µM (inactive)
GI50 (HCC 2998): > 100 µM (inactive)
GI50 (NCI-H522): 23.4 µM (inactive)
GI50 (Hs-578T): > 100 µM (inactive)
GI50 (HT-29): 53.8 µM (inactive)
GI50 (U-251): 97.3 µM (inactive)
GI50 (UACC-257): 90.6 µM (inactive)
GI50 (EKVX): > 100 µM (inactive)
GI50 (PC-3): 58.7 µM (inactive)
GI50 (BT-549): > 100 µM (inactive)
GI50 (OVCAR-4): 71.4 µM (inactive)
GI50 (TK-10): > 100 µM (inactive)
GI50 (OVCAR-5): 54.7 µM (inactive)
GI50 (SK-MEL-2): 88.3 µM (inactive)
GI50 (OVCAR-8): 89.9 µM (inactive)
GI50 (HCT-116): 35.9 µM (inactive)
GI50 (SNB-75): 95.3 µM (inactive)
GI50 (OVCAR-3): 26.4 µM (inactive)
GI50 (MDA-MB-231): > 100 µM (inactive)
GI50 (COLO 205): 32.4 µM (inactive)
GI50 (HCT-15): 72.3 µM
GI50 (K562): 37.8 µM (inactive)
GI50 (CCRF-CEM): 59 µM (inactive)
GI50 (SR): 49.9 µM (inactive)
GI50 (SK-MEL-28): 76.7 µM (inactive)

COc1ccc(-c2nnc(CCCCCCCCc3nnc(-c4ccc(OC)cc4)n3N)n2N)cc1
GI50 (UACC-62): > 92 µM (inactive)
GI50 (MDA-N): > 100 µM (inactive)
GI50 (MDA-MB-435): > 100 µM (inactive)
GI50 (A498): > 65.3 µM (inactive)
GI50 (UO-31): > 100 µM (inactive)
GI50 (T47D): > 100 µM (inactive)
GI50 (SF-268): > 58.2 µM (inactive)
GI50 (MOLT-4): > 100 µM (inactive)
GI50 (SK-OV-3): > 56.2 µM (inactive)
GI50 (RPMI-8226): > 100 µM (inactive)
GI50 (786-0): > 31.6 µM (inactive)
GI50 (KM12): > 100 µM (inactive)
GI50 (MCF7): > 100 µM (inactive)
GI50 (DU-145): > 100 µM (inactive)
GI50 (A549): > 100 µM (inactive)
GI50 (ACHN): > 100 µM (inactive)
GI50 (HL-60): > 100 µM (inactive)
GI50 (LOX IMVI): > 100 µM (inactive)
GI50 (SW-620): > 100 µM (inactive)
GI50 (SF-539): > 76.2 µM (inactive)
GI50 (SN12C): > 100 µM (inactive)
GI50 (NCI-H23): > 100 µM (inactive)
GI50 (HOP-92): > 39.3 µM (inactive)
GI50 (NCI/ADR-RES): > 31.6 µM (inactive)
GI50 (SNB-19): > 60.3 µM (inactive)
GI50 (NCI-H226): > 100 µM (inactive)
GI50 (HOP-62): 28.2 µM (inactive)
GI50 (SF-295): > 59.4 µM (inactive)
GI50 (Malme-3M): > 100 µM (inactive)
GI50 (M14): > 100 µM (inactive)
GI50 (NCI-H460): > 100 µM (inactive)
GI50 (HCC 2998): > 100 µM (inactive)
GI50 (NCI-H522): > 56.5 µM (inactive)
GI50 (Hs-578T): > 59 µM (inactive)
GI50 (HT-29): > 100 µM (inactive)
GI50 (U-251): > 56.9 µM (inactive)
GI50 (UACC-257): > 100 µM (inactive)
GI50 (EKVX): > 100 µM (inactive)
GI50 (PC-3): > 100 µM (inactive)
GI50 (BT-549): 58.5 µM (inactive)
GI50 (SK-MEL-5): > 100 µM (inactive)
GI50 (IGROV-1): > 96.6 µM (inactive)
GI50 (CAKI-1): > 100 µM (inactive)
GI50 (OVCAR-4): > 100 µM (inactive)
GI50 (TK-10): > 60 µM (inactive)
GI50 (OVCAR-5): > 100 µM (inactive)
GI50 (SK-MEL-2): > 81.5 µM (inactive)
GI50 (OVCAR-8): > 31.6 µM (inactive)
GI50 (HCT-116): > 66.1 µM (inactive)
GI50 (SNB-75): 37.9 µM (inactive)
GI50 (OVCAR-3): > 100 µM (inactive)
GI50 (MDA-MB-231): > 57.8 µM (inactive)
GI50 (COLO 205): > 100 µM (inactive)
GI50 (HCT-15): > 100 µM
GI50 (K562): > 100 µM (inactive)
GI50 (CCRF-CEM): > 100 µM (inactive)
GI50 (SR): > 100 µM (inactive)
GI50 (SK-MEL-28): > 100 µM (inactive)

C[Si](C)(C)OC1c2[nH]c3ccccc3c2CN2C(=O)CCC12 (stereo not given)
GI50 (UACC-62): > 100 µM (inactive)
GI50 (MDA-N): > 100 µM (inactive)
GI50 (MDA-MB-435): > 100 µM (inactive)
GI50 (A498): > 100 µM (inactive)
GI50 (UO-31): > 100 µM (inactive)
GI50 (T47D): > 100 µM (inactive)
GI50 (SF-268): > 100 µM (inactive)
GI50 (MOLT-4): > 100 µM (inactive)
GI50 (SK-OV-3): > 100 µM (inactive)
GI50 (RPMI-8226): > 100 µM (inactive)
GI50 (786-0): > 100 µM (inactive)
GI50 (KM12): > 100 µM (inactive)
GI50 (MCF7): > 100 µM (inactive)
GI50 (DU-145): > 100 µM (inactive)
GI50 (A549): > 100 µM (inactive)
GI50 (ACHN): > 100 µM (inactive)
GI50 (HL-60): > 100 µM (inactive)
GI50 (LOX IMVI): > 100 µM (inactive)
GI50 (SW-620): > 100 µM (inactive)
GI50 (SF-539): > 100 µM (inactive)
GI50 (SN12C): > 100 µM (inactive)
GI50 (HOP-92): > 100 µM (inactive)
GI50 (NCI/ADR-RES): > 100 µM (inactive)
GI50 (SNB-19): > 100 µM (inactive)
GI50 (NCI-H226): > 100 µM (inactive)
GI50 (HOP-62): > 100 µM (inactive)
GI50 (M14): > 100 µM (inactive)
GI50 (NCI-H460): > 100 µM (inactive)
GI50 (HCC 2998): > 100 µM (inactive)
GI50 (NCI-H522): > 100 µM (inactive)
GI50 (Hs-578T): > 100 µM (inactive)
GI50 (HT-29): > 100 µM (inactive)
GI50 (U-251): > 100 µM (inactive)
GI50 (UACC-257): > 100 µM (inactive)
GI50 (EKVX): > 100 µM (inactive)
GI50 (PC-3): > 100 µM (inactive)
GI50 (BT-549): > 100 µM (inactive)
GI50 (SK-MEL-5): > 100 µM (inactive)
GI50 (IGROV-1): > 100 µM (inactive)
GI50 (CAKI-1): > 100 µM (inactive)
GI50 (OVCAR-4): > 100 µM (inactive)
GI50 (TK-10): > 100 µM (inactive)
GI50 (OVCAR-5): > 100 µM (inactive)
GI50 (SK-MEL-2): > 100 µM (inactive)
GI50 (OVCAR-8): > 100 µM (inactive)
GI50 (HCT-116): > 100 µM (inactive)
GI50 (SNB-75): > 100 µM (inactive)
GI50 (OVCAR-3): > 100 µM (inactive)
GI50 (MDA-MB-231): > 100 µM (inactive)
GI50 (COLO 205): > 100 µM (inactive)
GI50 (HCT-15): > 100 µM
GI50 (K562): > 100 µM (inactive)
GI50 (SR): > 100 µM (inactive)
GI50 (SK-MEL-28): > 100 µM (inactive)
